Values joined by “and” are separate entries in the source; they are usually repeats but may differ in a detail not shown here. Equal entries are not always repeated.
What was measured:
[1] = test system: Mtb-infected marmoset lung lesions; experiment: PET/CT imaging of tracer uptake in marmoset TB model; assay type: in vivo; conditions: for SUV/CMR / TGA/CMR: FDG, individual lesions
Method: Rabbits and marmosets at NIAID were anaesthetized and maintained during imaging[49],[67]. Syringes of FDG or FDT were measured in a dose calibrator immediately before and after injection, targeting = injected doses of 2 mCi/kg. During uptake and distribution of the probes, a CT scan from the base of the skull spanning the lungs and the upper abdominal cavity was acquired as described for each species on a helical eight-slice Neurological Ceretom CT scanner (NeuroLogicia, Danvers, MA) operated as part of a hybrid pre-clinical PET/CT system utilizing a common bed. The animal bed was then retracted into the microPET gantry (MicroPET Focus 220, Siemens Preclinical Solutions, Knoxville, TN) and sixty minutesβ ± 5 min post FDG injection, a series of 2 or 3, 10 min emission scans with 75 mm thick windows with a 25 mm overlap were acquired caudal to cranial. […] For the blocking studies, injections of 150 µg of [^19F]FDT synthesized as described above were administered 60 min and 5 min prior to the [^18F]-FDT tracer and the scans were acquired as before. Two animals were used in the blocking studies with one animal receiving the blocking agent while the other was administered saline only prior to the FDT tracer. Two days later, the administrations were reversed so that the second animal received the blocking agent. The emission data for all scans were processed and corrected. Cynomolgus macaques (n = 3) at the University of Pittsburgh were imaged using a Siemens microPET Focus 220 PET scanner and a Neurological Ceretom CT scanner. Paired FDG and FDT scans were collected on only 2 macaques pre-necropsy. Scans were viewed using OsiriX (Pixmeo, Geneva, Switzerland) to identify and analyze individual granulomas as described previously.
Dense lesion centers were subsequently identified for inclusion in the lung region manually and the program calculated the FDG signal parameters. In addition, each lesion within the lung was marked with a 3-D region of interest (ROI). In uninfected marmosets administered FDT, ROIs with a similar-volume (dia. 5 to 7 mm) were distributed in the lung as mock lesions according to the method of Ordonez et al.[70] and the SUV statistics for the ROIs were captured into excel sheets for analysis.

[2] = 1.5 hr voiding window; cited from earlier work
[3] = In vivo metabolism of 18F-labeled trehalose analogs in rabbits
Method: Finally, putative degradation was also probed directly in vivo using both Mtb-infected and naïve rabbits.
Blood (100 µL), urine (100–300 µL) and lesion samples were collected from animals and diluted 2:1 v/v with acetonitrile to sterilize them. These samples were then vortexed, centrifuged and the supernatant analyzed by either HPLC or TLC. The TLC silica gel plates used to assay these metabolism samples and lesion extracts were 150 Å Silica Gel HL 250 µm 10 ×20 cm channeled plates with a pre-adsorbent zone purchased from Analtech/iChromatography (Newark, DE). TLC plates were visualized via exposure to a phosphor screen for 16 h prior to imaging using a phosphor screen and Typhoon FLA7000 (GE Healthcare, Pittsburgh PA) or using a BioScan AR-2000 reader.

[4] = test system: mammalian (porcine) trehalase; experiment: Trehalase degradation assay; assay type: in vitro ADME; conditions: 0.3 units/mL trehalase, 10 mM substrate; for degradation by trehalase (Figure S5, released glucose): pH 5.7, 37 °C, 60 minutes
Method: The metabolic stabilities of the remaining three analogs, [^18F]FDT, 4-epi-[^18F]FDT and 6-[^18F]FDT were tested. Although, human trehalose-degrading trehalase activity is low and restricted primarily to the brush-border of the kidney where it is thought to be GPI-anchored[28],[32], it can be elevated in some diseases, therefore we also tested degradation of the analogs in vitro using high concentrations of mammalian (porcine) trehalase (0.3 units/mL, 10 mM substrate, Fig. S5). […]
Figure S5. Trehalase Assays.
Substrates were prepared to a final concentration of 10 mM in 0.05 M citric acid, pH 5.7 including trehalase stock solution (0.3 units/mL). The reaction mixture was incubated at 37 °C for 60 minutes, and then quenched with an equal volume of 0.1 M Tris, pH 7.5. Released glucose was measured with glucose assay kit (see Methods).

[5] = Human microsomal stability assay; conditions: human, microsomes, pH 7.4, %Remaining, human liver microsomes
Method: Microsomal stability assay was carried out as described previously. In brief, 10 x reduced nicotinamide adenine dinucleotide phosphate (NADPH)-regenerating system was freshly prepared by dissolving 37.2 mg glucose-6-phosphate (Sigma) in 1 mL of 100 mM potassium phosphate buffer, 39.8 mg nicotinamide adenine dinucleotide phosphate (NADP, Sigma) in 1 mL of potassium phosphate buffer, 11.5 U glucose-6-phosphate dehydrogenase (Thermo) in 1 mL of potassium phosphate buffer and 26.8 mg MgCl2.6H2O (Sigma) in 1 mL of distilled water. All these solutions were combined and kept on ice. […] After 5 min, 18 µL of NADPH-regenerating system was added to initiate reaction. Immediately after adding the NADPH regenerating system, 50 µL, 0 min time point sample was taken and quenched with equal volume of ice-cold methanol. Similarly further samples were taken at 10 min, 30 min, 60 min, 90 min and 120 min. Samples were centrifuged at 10,000 g at 4 °C for 10 min. […] After incubating the reaction mix at 37 °C for 5 min, 36 µL of NADPH regenerating system was added to initiate the reaction. 50 µL samples were taken at 0 min, 2.5 min, 5 min, 10 min, 20 min, 40 min and 80 min and reactions were quenched by adding equal amount of ice-cold acetonitrile and kept on ice.

[6] = [19F]FDT clearance and in vivo stability in marmosets (plasma LC-MS, 19F NMR); set-up: species or system common marmosets; conditions: common marmoset, plasma, iv, 20 mg, marmosets M1-M3 (duplicate measurements), 20 mg IV
Method: In order to determine [^19F]FDT metabolism in vivo, we assessed concentration vs time in two mammalian species: common marmosets and C57BL/6 mice. For marmosets weighing between 290.3–340.3 g, 20 mg of sterile-filtered FDT in PBS was injected IV (n = 3) and ~200 μL blood samples were taken from the femoral vein at 0 min, 5 min, 30 min, 60 min, 90 min and 180 min post injection. Samples were spun (4000 rcf for 10 mins at room temp) to separate red cell mass from plasma. Plasma portion was separated and stored at −80 °C for further analysis. Similarly, mice weighing from 18.7–20.5 g were injected (n = 5) with 5 mg of filter-sterilized FDT solution dissolved in PBS solution, pH 7.4. Mandibular blood samples were taken at 2 min, 15 min, 30 min and 45 min post injection. For the last sample in each mouse, the animal was bled out to get maximum sample for NMR analysis. Final urine samples were collected in 3 out of 5 mice through free catch. Blood samples were centrifuged (6500 rcf for 4 mins at room temp) to separate red cell mass from plasma, and plasma was separated and stored at −80 °C prior to analyzes.
Plasma samples from −80 °C were thawed on ice and mixed with 80% acetonitrile to precipitate plasma proteins and other biomolecules. Samples were centrifuged at 10,000 g, 4 °C for 10 min.
Figure S37. [19F]FDT Clearance and In Vivo Stability in Non-human Primates […]
A, B) 20 mg [19F]FDT was injected into marmosets (A, n=3 biological replicates, each measured in duplicate) and 5 mg FDT injected into mice (B, n=5 biological replicates, each measured in triplicate). […]
marmosets (A) and mice (B).
[19F]FDG was detected, consistent with the only low levels of metabolism seen with [18F]FDT in rabbits (see Figure S3G). C-F) We further analyzed the potential degradation of FDT into FDG by 19F NMR spectroscopy in marmoset plasma (C) sample from 5 min time point, mouse plasma (D) sample from 30 min time point and mouse urine samples from 30 min (E) and 45 min (F) time points, respectively. In all these samples only [19F]FDT was observed (d -201.2). The data points are average values from three replicates with error bars ± SD.
(1 picture or pasted object on this page, not shown here)

[7] = substrate: O=C[C@H](O)[C@@H](O)[C@H](O)[C@H](O)COP(=O)(O)O; experiment: OtsA^Sf enzyme kinetic assay (NADH-linked continuous); assay type: biochemical, E. coli; conditions: other: enzyme expressed from Spodoptera frugiperda, coupled-enzyme spectrophotometric assay, 25 °C, pH 7.5
Method: OtsA kinetic parameters were also determined by monitoring the formation of T6P by NADH-linked continuous assay.
60 °C with a nitrogen flush.
OtsA Enzyme kinetic assay
spectrophotometric assay.

2-[^18F]fluoro-2-deoxy-D-glucose [[^18F]FDG]
SUV/CMR ([1]; 4 wks HRZE): 12.2544 and 1.845 and 5.193 and 8.368 and 5.63 and 1.286 and 5.952 and 5.153 and 7.3616 | TGA/CMR ([1]; 4 wks HRZE): 11.4228 and 0.1147 and 1.936 and 8.84 and 2.799 and 0.1598 and 9.617 and 2.242 and 13.7241 | SUV/CMR ([1]; Pre-Rx): 5.878 and 2.269 and 2.719 and 4.3218 and 3.722 and 2.294 and 3.185 and 2.868 and 3.6021 | TGA/CMR ([1]; Pre-Rx): 7.811 and 0.2621 and 2.6706 and 8.989 and 4.301 and 0.5302 and 6.073 and 2.651 and 5.8274 | uptake response to treatment (SUVs and TLG) ([1]; marmosets, 4 weeks HRZE): mixed, refractory and inconsistent uptake | dose, adrenals [2]: 0.013 mSv/MBq | dose, kidneys [2]: 0.020 mSv/MBq | dose, urinary bladder wall [2]: 0.086 mSv/MBq

OC[C@H]1O[C@H](O[C@H]2O[C@H](CO)[C@H]([18F])[C@H](O)[C@H]2O)[C@H](O)[C@@H](O)[C@@H]1O [4-epi-[^18F]FDT]
epi-4-Ftre (%) ([3]; Control Rabbits, 0 min): 100% | epi-4-Ftre (%) ([3]; Control Rabbits, 15 min): 87% | epi-4-Ftre (%) ([3]; Control Rabbits, 30 min): 78% | epi-4-Ftre (%) ([3]; Control Rabbits, 45 min): 87% | epi-4-Ftre (%) ([3]; Control Rabbits, 60 min): 73% | epi-4-Ftre (%) ([3]; Control Rabbits, 90 min): 82% | epi-4-Ftre (%) ([3]; Control Rabbits, 120 min): 76% | epi-4-Ftre (%) ([3]; Control Rabbits, 180 min): 71% | epi-4-Ftre (%) ([3]; Infected Rabbits, 0 min): 100% | epi-4-Ftre (%) ([3]; Infected Rabbits, 15 min): 89% | epi-4-Ftre (%) ([3]; Infected Rabbits, 30 min): 87% | epi-4-Ftre (%) ([3]; Infected Rabbits, 45 min): 84% | epi-4-Ftre (%) ([3]; Infected Rabbits, 60 min): 81% | epi-4-Ftre (%) ([3]; Infected Rabbits, 90 min): 76% | epi-4-Ftre (%) ([3]; Infected Rabbits, 120 min): 91% | epi-4-Ftre (%) ([3]; Infected Rabbits, 180 min): 90% | metabolism ([3]; rabbits, after 3 h): 30%

OC[C@H]1O[C@H](O[C@H]2O[C@H](CO)[C@@H](F)[C@H](O)[C@H]2O)[C@H](O)[C@@H](O)[C@@H]1O [4-epi-[^19F]FDT]
degradation by trehalase [4]: little or no degradation | degradation by trehalase (Figure S5, released glucose) [4]: 0

OC[C@H]1O[C@H](O[C@H]2O[C@H](CF)[C@@H](O)[C@H](O)[C@H]2O)[C@H](O)[C@@H](O)[C@@H]1O [6-[^19F]FDT]
degradation by trehalase [4]: 14% | degradation by trehalase (Figure S5, released glucose) [4]: 14

OC[C@H]1O[C@H](O[C@H]2O[C@H](CO)[C@@H](O)[C@H](O)[C@H]2F)[C@H](O)[C@@H](O)[C@@H]1O [FDT]
remaining at 0 h, 3 µM ([5]; 0 min): 100% | remaining at 5 min, 3 µM ([5]; 5 min): 74.5% | remaining at 10 min, 3 µM ([5]; 10 min): 58.5% | remaining at 20 min, 3 µM ([5]; 20 min): 55.3% | remaining at 40 min, 3 µM ([5]; 40 min): 56.6% | remaining at 2.5 min, 3 µM ([5]; […]): 80.1% | concentration at 5 min ([6]; 5 min post injection): 551 µM | concentration at 30 min ([6]; 30 min post injection): 250 µM | concentration at 61 min ([6]; 61 min post injection): 173 µM | concentration at 93 min ([6]; 93 min post injection): 97.1 µM

OC[C@H]1O[C@H](O[C@H]2O[C@H](CO)[C@@H](O)[C@H](O)[C@H]2O)[C@H](O)[C@@H](O)[C@@H]1O [trehalose, reference compound]
degradation by trehalase [4]: complete degradation | degradation by trehalase (Figure S5, released glucose) [4]: 100

B1: OtsA^Sf (Escherichia coli K-12) (protein)
chain: MSRLVVVSNRIAPPDEHAASAGGLAVGILGALKAAGGLWFGWSGETGNEDQPLKKVKKGNITWASFNLSEQDLDEYYNQFSNAVLWPAFHYRLDLVQFQRPAWDGYLRVNALLADKLLPLLQDDDIIWIHDYHLLPFAHELRKRGVNNRIGFFLHIPFPTPEIFNALPTYDTLLEQLCDYDLLGFQTENDRLAFLDCLSNLTRVTTRSAKSHTAWGKAFRTEVYPIGIEPKEIAKQAAGPLPPKLAQLKAELKNVQNIFSVERLDYSKGLPERFLAYEALLEKYPQHHGKIRYTQIAPTSRGDVQAYQDIRHQLENEAGRINGKYGQLGWTPLYYLNQHFDRKLLMKIFRYSDVGLVTPLRDGMNLVAKEYVAAQDPANPGVLVLSQFAGAANELTSALIVNPYDRDEVAAALDRALTMSLAERISRHAEMLDVIVKNDINHWQECFISDLKQIVPRSAESQQRDKVATFPKLA
notes: His tag (type from Ni-NTA purification and anti-His blot) (C); made in house; host or cells: Spodoptera frugiperda Sf9 cells (Bac-to-Bac baculovirus)
Km [7]: 4.9 ± 0.5 mM | kcat [7]: 57.5 ± 2.3 s⁻¹ | kcat/Km [7]: 11900 M⁻¹ s⁻¹
